# Assay results taken from patent publication US9522928B2, “Mannosylated compounds useful for the prevention and the treatment of infectious diseases” (UNIVERSITE DE STRASBOURG, priority 2011, dated 2016).
# How the values were obtained:
# Type in all cases: cell-based
# DC-SIGN = target: T1, DC-SIGN (Homo sapiens, UniProt Q9NNX6); test: DC-SIGN internalization in DCs (flow cytometry, confocal microscopy); details: 100 μM
# T1 construct: endogenous in cells; host or cells: human monocyte-derived dendritic cells (GM-CSF/IL-4 differentiated)
# T1 sequence (Q9NNX6 1-404): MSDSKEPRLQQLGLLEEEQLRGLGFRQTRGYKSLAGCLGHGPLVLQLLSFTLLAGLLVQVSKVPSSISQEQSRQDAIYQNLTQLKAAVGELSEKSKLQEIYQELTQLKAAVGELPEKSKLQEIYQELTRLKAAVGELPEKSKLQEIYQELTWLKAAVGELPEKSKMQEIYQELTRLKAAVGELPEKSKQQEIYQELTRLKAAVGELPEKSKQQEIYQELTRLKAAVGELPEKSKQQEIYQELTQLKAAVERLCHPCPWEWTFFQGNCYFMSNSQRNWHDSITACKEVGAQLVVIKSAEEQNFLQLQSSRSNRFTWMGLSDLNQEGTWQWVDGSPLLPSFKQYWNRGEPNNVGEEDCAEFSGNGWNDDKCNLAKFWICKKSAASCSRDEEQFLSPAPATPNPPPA
# Method: To visualize the effect on DC-SIGN, cells were either left untreated or exposed to TriMan (100 μM final) for 45 min at 37° C., fixed with 4% paraformaldehyde for 15 min at room temperature, washed, permeabilized with 0.1% Triton X-100 for 3 min at 20° C., washed and labeled with an anti-DC-SIGN primary monoclonal antibody clone 111H2 (Canard, et al., 2011), followed by a secondary FITC-labeled anti-mouse-IgG (Southern Biotech). Nuclei were labeled with DAPI. Slides were mounted and processed as above.
# Moreover, expression of DC-SIGN was visualized with a fluorescently-labeled antibody by confocal fluorescence microscopy. In untreated cells, DC-SIGN was mostly located at the cell membrane, in agreement with previous reports (Engering, et al., 2002). Upon exposure to TriManC24, DC-SIGN was detected both at the cell membrane and within the cytoplasm. […] The effect of TriManC24 on DC-SIGN cellular localization was assessed by flow cytometry analyses of DCs, in the absence or presence of TriManC24.
# [1] = target: T2, DC-SIGN expressed at the surface of DCs (Homo sapiens, UniProt Q9NNX6); test: Competition with gp120-FITC binding to DCs, flow cytometry; details: 100 μM, 30 min pretreatment, competition not complete
# T2 construct: endogenous in cells; host or cells: human monocyte-derived dendritic cells (GM-CSF/IL-4 differentiated)
# T2 sequence (Q9NNX6 1-404): T1 sequence (Q9NNX6 1-404)
# Method: Human DCs (1×10^5 in 100 μl) were aliquoted in a 96-well microtiter plate in RPMI 1640 medium without FBS. To assess the binding of HIV-1 glycoprotein 120, FITC conjugated recombinant gp120 HIV-1 IIIB (ImmunoDiagnostics Inc, Woburn, Mass. U.S.A.) was added to the cells (final concentration of 5 μg/ml) and incubated for 45 min at 37° C. For competition assays, cells were pretreated with either mannan (100 μg/ml final) or TriManC24 (100 μM) for 30 min at 37° C., followed by incubation with gp120-FITC for 45 min at 37° C. After washing with HBSS buffer (Lonza), expression of fluorescence intensity was analyzed on a FACSCalibur flow cytometer with the CellQuest Pro software
# The ability of TriManC24 to inhibit the interactions of HIV-1 gp120 with DC-SIGN […] at the surface of DCs. Immature DCs were prepared by differentiation of human monocytes, in the presence of a cocktail of cytokines. The expression levels of DC-SIGN were controlled by flow cytometry. […] When cells were incubated with fluorescently-labeled gp120, a strong binding of gp120 to DCs was observed as compared with a lower interaction with monocytes (FIG. 1B).
# A competition assays were performed by pre-incubating DCs with either TriManC24 or mannan, followed by the addition of gp120-FITC (FIG. 1C).
# HIV-1 R5 = HIV-1 R5 trans-infection of MAGI-CCR5 cells mediated by DCs
# Method: ManC1, […] (comparative) and compounds of the invention (ManC24, ManC17, TriManC24, TriDiManC24, TriManinsatC24 and ManinsatC24) were serially diluted in water. Human DCs (1×10^5 in 200 μl ) were pre-treated with different concentrations of compounds, or mannan (Sigma) or culture medium alone, in RPMI 1640 medium containing 10% FBS for 45 min at 37° C., prior infection with HIV-1 (100 ng of p24Gag) for 3 h. Excess free virus and molecules were removed by three washes. DCs were then cocultured with MAGI -CCR5 cells (1×10^5) at 37° C. plated in a 48-well plate. After two days, viral infection of MAGI-CCR5 cells was quantitated following beta-galactosidase assays and enumerating blue cells by light microscopy.
# The IC50 were determined by serial dilution of each compound. The trans-infection assays were repeated a minimum of three times, and the IC50 determined using KaleidaGraph.
# To investigate the ability of the compounds of the invention to inhibit HIV-1 trans infection, we chose to infect human DCs in order to best mimic in vivo conditions. Human DCs were exposed to different compounds (namely, Mannan (control), ManC1 (comparative), ManC11 (comparative), ManC17, ManC24, TriManC24, TriDiManC24, ManinsatC24 and TriManinsatC24) for 45 min at 37° C., before inoculation with HIV-1 (strains R5 and X4) for 3 hours. After extensive washings to remove unbound virions and mannosides, DCs were then co-cultured with MAGI-CCR5 cells. This procedure allows precise quantification of HIV-1 replication in reporter MAGI-CCR5 cells by detection of beta-galactosidase activity. These cells express an integrated copy of the HIV long terminal repeat (LTR) fused to the beta-galactosidase reporter gene, and express the CD4 receptor and the CCR5 and CXCR4 co-receptors, required for entry of HIV-1 R5 and X4 respectively. Upon viral entry leading to viral Tat expression and activation of the LTR, these cells permit quantification of HIV trans-infection after two days.
compound,measurement,setting,value
CCCCCCCCCCCCCCCCCCCCCCCCC(=O)NC(COCCC(=O)NCCOCCOCCOCCOC1OC(CO)C(O)C(O)C1O)(COCCC(=O)NCCOCCOCCOCCOC1OC(CO)C(O)C(O)C1O)COCCC(=O)NCCOCCOCCOCCOC1OC(CO)C(O)C(O)C1O (stereo not shown) [TriManC24],DC-SIGN receptors internalized,DC-SIGN,about 20%
same,inhibition of gp120 binding to DCs (in words),[1],able to inhibit the binding of gp120-FITC to DCs
same,inhibition of gp120 binding to DCs (in words),[1]; listed as TrimanC24,competed for the binding of soluble gp120 glycoprotein to DC-SIGN
same,residual level of trans-infection,HIV-1 R5,20%
